Test results reported in PubChem BioAssay (NCI).
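Compound exposure: 48 hours, 5 concentrations, 96-well plates. GI50: concentration for 50% inhibition of growth. Definition used: TGI = concentration required for complete inhibition of growth.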

Key:
Experiment in all cases: NCI tumour cell line growth inhibition, 48 h
EKVX NSCLC = system: EKVX NSCLC
HOP-62 NSCLC = system: HOP-62 NSCLC
HT29 colon = system: HT29 colon
LOX IMVI melanoma = system: LOX IMVI melanoma
MALME-3M melanoma = system: MALME-3M melanoma
NCI-H23 lung = system: NCI-H23 lung
SN12C renal = system: SN12C renal
U251 CNS = system: U251 CNS
UACC-257 melanoma = system: UACC-257 melanoma
MDA-MB-231 breast = system: MDA-MB-231 breast

## CC(=O)[O-].[Mn+3].[O-]c1ccccc1C=NCCN=Cc1ccccc1[O-]
EKVX NSCLC
  GI50: > 100 µM
  TGI: > 100 µM
HOP-62 NSCLC
  GI50: > 100 µM
  TGI: > 100 µM
HT29 colon
  GI50: 92.3 µM
  TGI: > 100 µM
LOX IMVI melanoma
  GI50: > 100 µM
  TGI: > 100 µM
MALME-3M melanoma
  GI50: > 100 µM
  TGI: > 100 µM
NCI-H23 lung
  GI50: 58.9 µM
  TGI: > 100 µM
SN12C renal
  GI50: > 100 µM
  TGI: > 100 µM
U251 CNS
  GI50: > 100 µM
  TGI: > 100 µM
UACC-257 melanoma
  GI50: 51.2 µM
  TGI: > 100 µM

## O=C(c1ccccc1)c1oc2ccc(Br)cc2c1-c1cnn(-c2ccccc2)c1
HOP-62 NSCLC
  TGI: > 100 µM
HT29 colon
  TGI: > 100 µM
LOX IMVI melanoma
  TGI: > 100 µM
MALME-3M melanoma
  TGI: > 100 µM
NCI-H23 lung
  TGI: > 100 µM
SN12C renal
  TGI: > 100 µM
UACC-257 melanoma
  TGI: > 100 µM

## CN(C)CCNC(=O)c1cccc2c(Nc3ccc(S(N)(=O)=O)cc3)c3ccccc3nc12
EKVX NSCLC
  TGI: 10.2 µM
HOP-62 NSCLC
  TGI: 11.6 µM
HT29 colon
  TGI: 8.35 µM
LOX IMVI melanoma
  TGI: 2.59 µM
MALME-3M melanoma
  TGI: 3.88 µM
NCI-H23 lung
  TGI: 5.39 µM
SN12C renal
  TGI: 3.9 µM
U251 CNS
  TGI: 4.69 µM
UACC-257 melanoma
  TGI: 9.83 µM

## Cc1nc(-c2ccccc2)cc2c1c(=O)oc1ccccc12
EKVX NSCLC
  TGI: > 100 µM
HOP-62 NSCLC
  TGI: > 100 µM
HT29 colon
  TGI: > 100 µM
MALME-3M melanoma
  TGI: > 100 µM
NCI-H23 lung
  TGI: > 100 µM
SN12C renal
  TGI: > 100 µM
U251 CNS
  TGI: > 100 µM
UACC-257 melanoma
  TGI: > 100 µM

## CN(CCc1ccccn1)c1nc(=[N+](C)C)ss1
EKVX NSCLC
  TGI: > 100 µM
HOP-62 NSCLC
  TGI: > 100 µM
HT29 colon
  TGI: > 100 µM
LOX IMVI melanoma
  TGI: > 100 µM
MALME-3M melanoma
  TGI: > 100 µM
NCI-H23 lung
  TGI: > 100 µM
SN12C renal
  TGI: > 100 µM
U251 CNS
  TGI: > 100 µM
UACC-257 melanoma
  TGI: > 100 µM

## CC(=O)O[C@H]1CCC2[C@@H]3CCC4=C(O)C(=O)C(C#N)C[C@]4(C)C3CC[C@@]21C (stereo partly specified)
EKVX NSCLC
  TGI: > 100 µM
HOP-62 NSCLC
  TGI: > 100 µM
HT29 colon
  TGI: > 100 µM
LOX IMVI melanoma
  TGI: > 100 µM
MALME-3M melanoma
  TGI: > 100 µM
NCI-H23 lung
  TGI: > 100 µM
SN12C renal
  TGI: > 100 µM
U251 CNS
  TGI: > 100 µM
UACC-257 melanoma
  TGI: > 100 µM

## O=C(Cc1nc2ccccc2s1)C(=O)Nc1cccc(Cl)c1
EKVX NSCLC
  TGI: > 100 µM
HOP-62 NSCLC
  TGI: > 100 µM
HT29 colon
  TGI: > 100 µM
LOX IMVI melanoma
  TGI: > 100 µM
MALME-3M melanoma
  TGI: > 100 µM
NCI-H23 lung
  TGI: > 100 µM
SN12C renal
  TGI: > 100 µM
U251 CNS
  TGI: > 100 µM
UACC-257 melanoma
  TGI: > 100 µM

## CCOC(=O)C(=O)Nc1ccc(Cl)cc1C
EKVX NSCLC
  TGI: > 100 µM
HOP-62 NSCLC
  TGI: > 100 µM
HT29 colon
  TGI: > 100 µM
LOX IMVI melanoma
  TGI: > 100 µM
MALME-3M melanoma
  TGI: > 100 µM
NCI-H23 lung
  TGI: > 100 µM
SN12C renal
  TGI: > 100 µM
U251 CNS
  TGI: > 100 µM
UACC-257 melanoma
  TGI: > 100 µM

## CC(C)C1CC2C(=O)N(c3ccccc3)C(=O)C2c2[nH]c3ccccc3c21 (stereo unspecified)
EKVX NSCLC
  TGI: > 100 µM
HOP-62 NSCLC
  TGI: > 100 µM
HT29 colon
  TGI: > 100 µM
MALME-3M melanoma
  TGI: > 100 µM
NCI-H23 lung
  TGI: 84 µM
U251 CNS
  TGI: 41.1 µM
UACC-257 melanoma
  TGI: > 100 µM

## COc1ccc(Cc2cc3c(cc2OCC(=O)O)OCO3)cc1
EKVX NSCLC
  TGI: > 100 µM
HOP-62 NSCLC
  TGI: > 100 µM
HT29 colon
  TGI: > 100 µM
LOX IMVI melanoma
  TGI: > 100 µM
MALME-3M melanoma
  TGI: > 100 µM
NCI-H23 lung
  TGI: > 100 µM
SN12C renal
  TGI: > 100 µM
UACC-257 melanoma
  TGI: > 100 µM

## CC1=C(C(=O)NCc2ccccc2)C(c2ccc([N+](=O)[O-])cc2)C(C(=O)NCc2ccccc2)=C(C)N1
EKVX NSCLC
  TGI: > 100 µM
HOP-62 NSCLC
  TGI: > 100 µM
HT29 colon
  TGI: 33.9 µM
LOX IMVI melanoma
  TGI: 44.1 µM
MALME-3M melanoma
  TGI: > 100 µM
NCI-H23 lung
  TGI: > 100 µM
SN12C renal
  TGI: > 100 µM
U251 CNS
  TGI: > 100 µM
UACC-257 melanoma
  TGI: > 100 µM

## O=C1c2ccccc2NC1(c1ccccc1)c1c(-c2ccccc2)[nH]c2ccccc12 (stereo unspecified)
EKVX NSCLC
  TGI: > 100 µM
HOP-62 NSCLC
  TGI: > 100 µM
HT29 colon
  TGI: > 100 µM
NCI-H23 lung
  TGI: > 100 µM
SN12C renal
  TGI: > 100 µM
U251 CNS
  TGI: > 100 µM
UACC-257 melanoma
  TGI: > 100 µM

## COc1ccc(NC(=O)CC/C(CC(=O)C(C)(C)C)=N\NC(=O)C(N)=O)cc1
EKVX NSCLC
  TGI: > 100 µM
HOP-62 NSCLC
  TGI: > 100 µM
HT29 colon
  TGI: > 100 µM
LOX IMVI melanoma
  TGI: > 100 µM
MALME-3M melanoma
  TGI: > 100 µM
NCI-H23 lung
  TGI: > 100 µM
SN12C renal
  TGI: > 100 µM
U251 CNS
  TGI: > 100 µM
UACC-257 melanoma
  TGI: > 100 µM

## Cc1ccccc1C(=O)Oc1ccc(O)cc1
EKVX NSCLC
  TGI: > 100 µM
HOP-62 NSCLC
  TGI: > 100 µM
HT29 colon
  TGI: > 100 µM
MALME-3M melanoma
  TGI: > 100 µM
NCI-H23 lung
  TGI: > 100 µM
SN12C renal
  TGI: > 100 µM
U251 CNS
  TGI: > 100 µM
UACC-257 melanoma
  TGI: > 100 µM

## COC(=O)CCC(=O)Nc1cc(Cl)ccc1Cl
EKVX NSCLC
  TGI: > 100 µM
HOP-62 NSCLC
  TGI: > 100 µM
HT29 colon
  TGI: > 100 µM
LOX IMVI melanoma
  TGI: > 100 µM
MALME-3M melanoma
  TGI: > 100 µM
NCI-H23 lung
  TGI: > 100 µM
SN12C renal
  TGI: > 100 µM
U251 CNS
  TGI: > 100 µM
UACC-257 melanoma
  TGI: > 100 µM

## O=C(O)/C(Cl)=C(\Cl)C(=O)NC1C2CC3CC(C2)CC1C3 (stereo unspecified)
EKVX NSCLC
  TGI: > 100 µM
HOP-62 NSCLC
  TGI: > 100 µM
HT29 colon
  TGI: > 100 µM
LOX IMVI melanoma
  TGI: > 100 µM
MALME-3M melanoma
  TGI: > 100 µM
NCI-H23 lung
  TGI: > 100 µM
SN12C renal
  TGI: > 100 µM
U251 CNS
  TGI: > 100 µM
UACC-257 melanoma
  TGI: > 100 µM

## Cc1cc2cn3c4ccc(O)cc4[nH]c(=O)c3c2cc1C
EKVX NSCLC
  GI50: 0.403 µM
  TGI: 1.85 µM
HOP-62 NSCLC
  GI50: 0.0415 µM
  TGI: 1.33 µM
MDA-MB-231 breast
  GI50: 0.071 µM
  TGI: 1.22 µM
NCI-H23 lung
  GI50: 0.0744 µM
  TGI: 1.4 µM
U251 CNS
  GI50: 0.026 µM
  TGI: 1.07 µM
UACC-257 melanoma
  GI50: 0.0416 µM
  TGI: 1.31 µM
